The values below come from US5707984A, “Steroid nitrite/nitrate ester derivatives useful as anti-inflammatory drugs” (G. D. Searle & Co., priority 1995, dated 1998).

Experiment [1] has as its system prostaglandin E2 (PGE2) synthesis in human fetal fibroblasts cells. The experiment is described as follows: In vitro inhibition of prostaglandin E2 (PGE2) synthesis assay, human fetal fibroblasts treated with IL-1 then arachidonic acid, ELISA. The settings on record: IL-1 16 h then arachidonic acid; compound 10 uM added with IL-1; basal 3.5, IL-1, AA alone 40.0. It counts as cell-based. On the procedure:
(§1) Selected compounds were tested in three in vitro and two in vivo assays. The in vitro assays consisted of the following: measuring the effect of the compounds to inhibit the increase of prostaglandins following treatment of human fetal fibroblasts cells with interleukin-1 followed by arachidonic acid, measuring the effect of the compounds on cyclic GMP in the human fetal fibroblasts, and measuring the smooth muscle relaxant activity in rat aortic rings. The in vivo assay consists of measuring the antiinflammatory properties of the compounds in the carageenan treated rat air pouch model and the relaxant activity on acetylcholine-induced bronchoconstriction in guinea-pigs.
A. In vitro inhibiton of prostaglandin E2 (PGE2) synthesis assay: Human fetal fibroblasts cells were treated with IL-1 for 16 hours and then with 10 mM arachidonic acid (AA). The prostaglandin E2 levels were measured by an ELISA. Compounds were given at the time of addition of IL-1. This assay provides an in vitro assessment of the compound to block the induction of the proinflammatory agent prostaglandin E2 (PGE2): […]
On the technique in general: An ELISA detects its analyte on a solid surface through an enzyme-linked reagent.

Experiment [2] relates to rat aortic ring smooth muscle. The experiment is described as follows: In vitro smooth relaxant activity assay, rat aortic rings precontracted with phenylephrine. It counts as cell-based. The settings on record: for smooth muscle relaxant activity (in words): rat aortic rings, Cys and L-NAME, FIGS. 1 and 2; for EC50: Rattus norvegicus, in the presence of Cys and L-NAME, precontracted with phenylephrine (0.3 μM), read-out: Relaxation, EC50. As to the method:
as §1
C. In vitro smooth relaxant activity assay: Selected compounds were examined for the ability to relax smooth muscle. The rat aortic ring assay was utilized as a bioassay to measure the relaxant activity. The rings were precontracted with phenylephrine (0.3 μM) and subsequently compounds were added to the tissue bath in the presence of cysteine (Cys) and N^G -L-nitro-arginine methyl ester (L-NAME): […]

For experiment [3], the system named is cyclic GMP in human fetal fibroblasts. The experiment is described as follows: In vitro stimulation of cGMP production assay, human fetal fibroblasts with isobutylmethylxanthine, radioimmunoassay (NO reporter cell assay). It counts as cell-based. The following applies: 120 min, isobutylmethylxanthine present; basal 1.8. As to the method: as §1
B. In vitro stimulation of cGMP production assay: Human fetal fibroblasts in the presence of isobutylmethylxanthine, an inhibitor of phosphodiesterase, were treated with compounds for 120 min and the intra-cellular cyclic GMP levels are measured by a radioimmunoassay. The cell line is utilized as a reporter cell assay to monitor the production of NO.

The test system of experiment [4] is prostaglandin E2 in pouch fluid (carageenan-induced inflammation). The experiment is described as follows: In vivo anti inflammatory assay, rat carageenan air pouch. On the procedure: as §1
D. In vivo anti inflammatory assay: EXAMPLE 1 was tested for antiinflammatory activity in vivo in the rat carageenan air pouch assay. Rats are injected subcutaneously with a volume of air over several days to form a pouch. […] The inflammation is measured by assaying the pouch fluid for prostaglandin E2 by ELISA. Examples 1 at 3 mg/kg dose blocked the increase in prostaglandin E2 by 60%.

In experiment [1], `C[C@]12C=CC(=O)C=C1CC[C@@H]1[C@@H]2[C@@H](O)C[C@@]2(C)[C@H]1CC[C@]2(O)C(=O)CO` [prednisolone] showed a PGE2 of 9.9 ng. Also, in experiment [2], the “smooth muscle relaxant activity (in words)” value is given as “did not show any effect”. Also, the “cyclic GMP” value in experiment [3] is 1.6 fm/cell well.
The term EC50 denotes the concentration giving half of the maximal effect. Take `CCC(=O)OCC(=O)[C@@]1(OC(=O)CC)[C@@H](C)C[C@H]2[C@@H]3CCC4=CC(=O)C=C[C@]4(C)[C@@]3(Cl)[C@@H](ON=O)C[C@@]21C` [Example 11]: in experiment [2], the EC50 was 40 nM.
Regarding `CCC(=O)OCC(=O)[C@@]1(OC(=O)CC)[C@@H](C)C[C@H]2[C@@H]3CCC4=CC(=O)C=C[C@]4(C)[C@@]3(Cl)[C@@H](O[N+](=O)[O-])C[C@@]21C` [beclomethasone dipropionate-11-nitrate ester], the EC50 in experiment [2] is 2000 nM.
On the same count and under the same terms, in the case of `CC(=O)OCC(=O)[C@@]1(O)CC[C@H]2[C@@H]3CCC4=CC(=O)C=C[C@]4(C)[C@H]3[C@@H](O[N+](=O)[O-])C[C@@]21C` [prednisolone-11-nitrate ester-21-acetate] it was 25000 nM.
`CCC(=O)OCC(=O)[C@@]1(OC(=O)CC)[C@@H](C)C[C@H]2[C@@H]3CCC4=CC(=O)C=C[C@]4(C)[C@@]3(Cl)[C@@H](O)C[C@@]21C` [beclomethasone dipropionate]: in experiment [2], the EC50 is greater than 100000 nM and the “smooth muscle relaxant activity (in words)” value is listed as “did not show any effect”.
For the compound `C[C@]12C=CC(=O)C=C1CC[C@@H]1[C@@H]2[C@@H](ON=O)C[C@@]2(C)[C@H]1CC[C@]2(O)C(=O)CO` [Example 2], the concentration giving a half-maximal response (EC50) in experiment [2] is 30 nM.
In experiment [1], `CC(=O)OCC(=O)[C@@]1(O)CC[C@H]2[C@@H]3CCC4=CC(=O)C=C[C@]4(C)[C@H]3[C@@H](ON=O)C[C@@]21C` [Example 1] came in with a PGE2 of 9.2 ng. Also, the concentration for a half-maximal effect (EC50) in experiment [2] turned out to be 20 nM. In addition, the “ability to reduce inflammation in vivo (in words)” value in experiment [4] was “possess the ability to reduce inflammation in vivo”. Moreover, the “blocked the increase in prostaglandin E2” value in experiment [4] (3 mg/kg) is listed as 60%. Besides, in experiment [3], the “cyclic GMP” value is listed as 4.8 fm/cell well.
